A short description of series [1]: Quantum yield measurement (Quantaurus-QY spectrometer). In kind it is physicochemical. Particulars: for increase in quantum yield / brightness relative to parent N,N-dialkyl dye: azetidine-substituted vs parent fluorophore.
Experimental: All reported quantum yield values were measured in under identical conditions using a Quantaurus-QY spectrometer (C11374, Hamamatsu). Measurements were carried out using dilute samples (A<0.1) and self-absorption corrections were performed using the instrument software. Reported values are averages (n=3).
The nature of series [2]: Absorption and fluorescence spectroscopy of dyes. Type of series: physicochemical. On the procedure:
Phosphate buffered saline (PBS) was at pH 7.4 unless otherwise noted.
Spectroscopy was performed using 1-cm path length, 3.5-mL quartz cuvettes from Starna Cells or 1-cm path length, 1.0-mL quartz microcuvettes from Hellma. All measurements were taken at ambient temperature (22±2° C.) in 10 mM HEPES, pH 7.3 buffer unless otherwise noted. Absorption spectra were recorded on a Cary Model 100 spectrometer (Varian); reported values for extinction coefficients (ε) are averages (n=3). Fluorescence spectra were recorded on a Cary Eclipse fluorometer (Varian). Normalized spectra are shown for clarity.

The mark [3] stands for this setting: Table 1, trifluoroethanol containing 0.1% (v/v) trifluoroacetic acid.

Counter-ions that a name gives are not always drawn. Like-named read-outs stand apart in the source and are kept apart here.

As to `O=C(O)c1ccccc1-c1c2ccc(=O)cc-2oc2cc(N3CCC3)ccc12` [Example 59, 2-(6-(Azetidin-1-yl)-3-oxo-3H-xanthen-9-yl)benzoic acid], in series [1] (Table 3, 10 mM HEPES pH 7.3), the ϕ is 0.85. In series [1] (aqueous buffer), the “ϕ (quantum yield)” value is 0.85. For the same compound, the “increase in quantum yield / brightness relative to parent N,N-dialkyl dye” value in series [1] amounted to 4 fold. In addition, in series [2] (Table 3, 10 mM HEPES pH 7.3), the ε is given as 59,000 M^−1 cm^−1, the λem is given as 546 nm and the λmax is recorded as 519 nm.
The compound `O=C(O)c1cc2ccc(N3CCC3)cc2oc1=O` [Example 51, 7-(Azetidin-1-yl)-2-oxo-2H-chromene-3-carboxylic acid] returned a ϕ in series [1] (Table 3, 10 mM HEPES pH 7.3) of 0.84. The “ϕ (quantum yield)” value in series [1] (aqueous buffer) came to 0.84. In addition, in series [1], the “increase in quantum yield / brightness relative to parent N,N-dialkyl dye” value is reported as roughly 30 fold. Besides, in series [2] (Table 3, 10 mM HEPES pH 7.3), the ε was 24,000 M^−1 cm^−1, the λem was 470 nm and the λmax worked out at 387 nm. Also, in series [2] (aqueous buffer), the “ε (extinction coefficient)” value was determined as 24000 M⁻¹ cm⁻¹.
Take `C[Si]1(C)C2=CC(=[N+]3CCC3)C=CC2=C(c2ccccc2C(=O)[O-])c2ccc(N3CCC3)cc21` [Example 30, 2-(3,7-Di(azetidin-1-yl)-5,5-dimethyldibenzo[b,e]silin-10-ylium-10(5H)-yl)benzoate]: the ϕ in series [1] (Table 1, 10 mM HEPES pH 7.3) was 0.54; in series [1] (Table 3, 10 mM HEPES pH 7.3), 0.54. Besides, the “ϕ (quantum yield)” value in series [1] (aqueous buffer) worked out at 0.54. Besides, the λem is reported as 664 nm in series [2] (Table 1, 10 mM HEPES pH 7.3) and 664 nm in series [2] (Table 3, 10 mM HEPES pH 7.3). The λmax was 646 nm in series [2] (Table 1, 10 mM HEPES pH 7.3); 646 nm in series [2] (Table 3, 10 mM HEPES pH 7.3); 646 in series [2] (text b257, unit not given). For the same compound, the ε in series [2] (Table 1, ethanol containing 0.1% (v/v) trifluoroacetic acid) was 152,000^b M^−1 cm^−1; in series [2] (Table 3, ethanol containing 0.1% v/v trifluoroacetic acid), 152,000^a M^−1 cm^−1. Further, the “ε (extinction coefficient)” value in series [2] (acidic ethanol) amounted to 152000 M⁻¹ cm⁻¹.
In series [1] (Table 1, 10 mM HEPES pH 7.3), `O=C(O)CC1CN(c2ccc3c(-c4ccccc4C(=O)[O-])c4ccc(=[N+]5CC(CC(=O)O)C5)cc-4oc3c2)C1` (stereo not drawn) [Example 17, 2-(3,6-Bis(3-(carboxymethyl)azetidin-1-yl)xanthylium-9-yl)benzoate] yielded a ϕ of 0.87. For the same compound, in series [2] (Table 1, 10 mM HEPES pH 7.3), the ε is on record as 111,000 M^−1 cm^−1, the λem is listed as 572 nm and the λmax is listed as 549 nm.
The compound `CCN(CC)c1ccc2nc3ccc(=[N+](CC)CC)cc-3oc2c1.[O-][Cl+3]([O-])([O-])[O-]` [Oxazine 1, reference compound] registered a ϕ in series [1] (Table 3, 10 mM HEPES pH 7.3) of 0.07. Besides, in series [1] (aqueous buffer), the “ϕ (quantum yield)” value was found to be 0.07. Also, in series [2] (Table 3, 10 mM HEPES pH 7.3), the ε is reported as 111,000 M^−1 cm^−1, the λem was found to be 669 nm and the λmax came out at 655 nm. Besides, the “ε (extinction coefficient)” value in series [2] (aqueous buffer) is 111000 M⁻¹ cm⁻¹.
As for `c1cc2cc3ccc(N4CCC4)cc3nc2cc1N1CCC1` [Example 60, 3,6-Di(azetidin-1-yl)acridine], the ϕ in series [1] (Table 3, 10 mM HEPES pH 7.3) amounted to 0.52. In addition, the “ϕ (quantum yield)” value in series [1] (aqueous buffer) came to 0.52. Further, in series [1], the “increase in quantum yield / brightness relative to parent N,N-dialkyl dye” value stood at 2.5 fold. In series [2] (Table 3, 10 mM HEPES pH 7.3), the ε was 47,000 M^−1 cm^−1, the λem is 531 nm and the λmax turned out to be 492 nm.
As to `N#CC1CN(c2ccc3c(-c4ccccc4C(=O)[O-])c4ccc(=[N+]5CC(C#N)C5)cc-4oc3c2)C1` (stereo not drawn) [Example 12, 2-(3,6-Bis(3-cyanoazetidin-1-yl)xanthylium-9-yl)benzoate], the ϕ in series [1] (Table 1, 10 mM HEPES pH 7.3) worked out at 0.89. Also, in series [2] (Table 1, 10 mM HEPES pH 7.3), the ε is 108,000 M^−1 cm^−1, the λem turned out to be 557 nm and the λmax came to 533 nm.
In the case of `Cc1cc(=O)oc2cc(N(C)C)ccc12` [Coumarin 461, reference compound], the “ϕ (quantum yield)” value in series [1] was determined as 0.19. In addition, the ϕ in series [1] (pH 7.3) came to 0.19. Besides, in series [2] (Table 3, 10 mM HEPES pH 7.3), the ε is 18,000 M^−1 cm^−1, the λem came to 470 nm and the λmax is recorded as 372 nm. Further, the “ε (extinction coefficient)” value in series [2] (aqueous buffer) was 18000 M⁻¹ cm⁻¹.
In the case of `COC1CN(c2ccc3c(-c4ccccc4C(=O)[O-])c4ccc(=[N+]5CC(OC)C5)cc-4oc3c2)C1` (stereo not drawn) [Example 11, 2-(3,6-Bis(3-methoxyazetidin-1-yl)xanthylium-9-yl)benzoate], the ϕ in series [1] (Table 1, 10 mM HEPES pH 7.3) amounted to 0.88. Further, in series [2] (Table 1, 10 mM HEPES pH 7.3), the ε is 109,000 M^−1 cm^−1, the λem turned out to be 564 nm and the λmax turned out to be 541 nm.
In turn, `CC1(C)CN(c2ccc3c(-c4ccccc4C(=O)[O-])c4ccc(=[N+]5CC(C)(C)C5)cc-4oc3c2)C1` [Example 8, 2-(3,6-Bis(3,3-dimethylazetidin-1-yl)xanthylium-9-yl)benzoate] had a ϕ in series [1] (Table 1, 10 mM HEPES pH 7.3) of 0.83. For the same compound, in series [2] (Table 1, 10 mM HEPES pH 7.3), the ε was 110,000 M^−1 cm^−1, the λem is 572 nm and the λmax was 550 nm.
For `CN(C)C1CN(c2ccc3c(-c4ccccc4C(=O)[O-])c4ccc(N5CC(N(C)C)C5)cc4[o+]c3c2)C1` [Example 13, 2-(3,6-Bis(3-(dimethylamino)azetidin-1-yl)xanthylium-9-yl)benzoate] the same measures were 0.57, 111,000 M^−1 cm^−1, 565 nm and 542 nm.
Turning to `c1cc2nc3ccc(=[N+]4CCC4)cc-3oc2cc1N1CCC1` [Example 61, 3,7-Di(azetidin-1-yl)phenoxazin-5-ium trifluoroacetate], the ϕ in series [1] (Table 3, 10 mM HEPES pH 7.3) was 0.24. Besides, in series [1] (aqueous buffer), the “ϕ (quantum yield)” value is 0.24. Further, in series [1], the “increase in quantum yield / brightness relative to parent N,N-dialkyl dye” value came to 3.4 fold. Also, in series [2] (Table 3, 10 mM HEPES pH 7.3), the ε was 99,000 M^−1 cm^−1, the λem was 661 nm and the λmax came out at 647 nm. Besides, the “ε (extinction coefficient)” value in series [2] (aqueous buffer) turned out to be 99000 M⁻¹ cm⁻¹.
In series [1] (Table 1, 10 mM HEPES pH 7.3), `O=C([O-])c1ccccc1-c1c2ccc(=[N+]3CC(C(=O)O)C3)cc-2oc2cc(N3CC(C(=O)O)C3)ccc12` (stereo not drawn) [Example 16, 2-(3,6-Bis(3-carboxyazetidin-1-yl)xanthylium-9-yl)benzoate] displayed a ϕ of 0.87. Moreover, in series [2] (Table 1, 10 mM HEPES pH 7.3), the ε was 108,000 M^−1 cm^−1, the λem worked out at 568 nm and the λmax stood at 545 nm.
In turn, `CC1(C)C2=CC(=[N+]3CCC3)C=CC2=C(c2ccccc2C(=O)[O-])c2ccc(N3CCC3)cc21` [Example 40, 2-(3,6-Di(azetidin-1-yl)-10,10-dimethylanthracen-9-ylium-9(10H)-yl)benzoate] gave a ϕ in series [1] (Table 1, 10 mM HEPES pH 7.3) of 0.67. In addition, the ϕ in series [1] (Table 3, 10 mM HEPES pH 7.3) is 0.67. The “ϕ (quantum yield)” value in series [1] (aqueous buffer) is listed as 0.67. In series [2] (Table 1, 10 mM HEPES pH 7.3), the ε is recorded as 99,000 M^−1 cm^−1, the λem was 631 nm and the λmax stood at 608 nm. In addition, in series [2] (Table 3, 10 mM HEPES pH 7.3), the ε is given as 99,000 M^−1 cm^−1, the λem is reported as 631 nm and the λmax turned out to be 608 nm. Moreover, in series [2] (aqueous buffer), the “ε (extinction coefficient)” value was found to be 99000 M⁻¹ cm⁻¹.
As to `C[Si]1(C)C2=CC(=[N+]3CC(F)C3)C=CC2=C(c2ccccc2C(=O)[O-])c2ccc(N3CC(F)C3)cc21` (stereo not drawn) [Example 31, 2-(3,7-Bis(3-fluoroazetidin-1-yl)-5,5-dimethyldibenzo[b,e]silin-10-ylium-10(5H)-yl)benzoate], the ϕ in series [1] (Table 1, 10 mM HEPES pH 7.3) amounted to 0.56. In series [2] (Table 1, 10 mM HEPES pH 7.3), this compound returned a λem of 652 nm and a λmax of 635 nm. Also, in series [2] (setting [3]), the ε is 167,000^a M^−1 cm^−1.
`O=C([O-])c1ccccc1-c1c2ccc(=[N+]3CC(F)C3)cc-2oc2cc(N3CC(F)C3)ccc12` (stereo not drawn) [Example 10, 2-(3,6-Bis(3-fluoroazetidin-1-yl)xanthylium-9-yl)benzoate] came in with a ϕ in series [1] (Table 1, 10 mM HEPES pH 7.3) of 0.87. In series [2] (Table 1, 10 mM HEPES pH 7.3), the ε is recorded as 113,000 M^−1 cm^−1, the λem was determined as 560 nm and the λmax amounted to 536 nm.
On to `Cc1cc(=O)oc2cc(N3CCC3)ccc12` [Example 49, 7-(Azetidin-1-yl)-4-methyl-2H-chromen-2-one], for which, in series [1] (Table 3, 10 mM HEPES pH 7.3), the ϕ is on record as 0.96. The “ϕ (quantum yield)” value in series [1] (aqueous buffer) is 0.96. Also, the “increase in quantum yield / brightness relative to parent N,N-dialkyl dye” value in series [1] was “five-fold”. In addition, in series [2] (Table 3, 10 mM HEPES pH 7.3), the ε was 15,000 M^−1 cm^−1, the λem was found to be 467 nm and the λmax stood at 354 nm. Also, the “ε (extinction coefficient)” value in series [2] (aqueous buffer) amounted to 15000 M⁻¹ cm⁻¹.
In series [1] (Table 3, 10 mM HEPES pH 7.3), `CN(C)c1ccc2cc3ccc(N(C)C)cc3nc2c1` [Acridine Orange, reference compound] registered a ϕ of 0.21. Moreover, the “ϕ (quantum yield)” value in series [1] (aqueous buffer) was 0.21. Further, in series [2] (Table 3, 10 mM HEPES pH 7.3), the ε is 50,000 M^−1 cm^−1, the λem is on record as 528 nm and the λmax is given as 493 nm.
`CN(C)c1ccc2c(c1)Oc1cc(O)ccc1C21OC(=O)c2ccccc21` (stereo not drawn) [dimethyl rhodol, reference compound]: the “ϕ (quantum yield)” value in series [1] came to 0.21. In addition, in series [1] (pH 7.3), the ϕ was found to be 0.21. In series [2] (Table 3, 10 mM HEPES pH 7.3), the ε is given as 60,000 M^−1 cm^−1, the λem stood at 546 nm and the λmax is 518 nm. The “ε (extinction coefficient)” value in series [2] (aqueous buffer) is 60000 M⁻¹ cm⁻¹.
The compound `CC1(C)C2=CC(=[N+]3CC(F)(F)C3)C=CC2=C(c2ccccc2C(=O)[O-])c2ccc(N3CC(F)(F)C3)cc21` [Example 41, 2-(3,6-Bis(3,3-difluoroazetidin-1-yl)-10,10-dimethylanthracen-9-ylium-9(10H)-yl)benzoate] had a ϕ in series [1] (Table 1, 10 mM HEPES pH 7.3) of 0.78. Moreover, in series [2] (Table 1, 10 mM HEPES pH 7.3), the λem was determined as 609 nm and the λmax amounted to 585 nm. Also, the ε in series [2] (setting [3]) is 156,000^a M^−1 cm^−1.
With `O=C([O-])c1ccccc1-c1c2ccc(=[N+]3CC(F)(F)C3)cc-2oc2cc(N3CC(F)(F)C3)ccc12` [Example 9, 2-(3,6-Bis(3,3-difluoroazetidin-1-yl)xanthylium-9-yl)benzoate], the ϕ in series [1] (Table 1, 10 mM HEPES pH 7.3) came out at 0.91. Besides, in series [2] (Table 1, 10 mM HEPES pH 7.3), the ε is recorded as 94,000 M^−1 cm^−1, the λem was determined as 549 nm and the λmax is 525 nm.

These data come from patent publication US10161932B2, “Azetidine-substituted fluorescent compounds” (HOWARD HUGHES MEDICAL INSTITUTE, priority 2014, dated 2018).
